US20050244490A1, “Dosing methods for beta-D-2',3'-dideoxy-2',3'-didehydro-5-fluorocytidine antiviral therapy” (priority 2003, published 2005)

Legend:
[1] = pbmc
clinical = settings: in vivo
[2] = Comparison to other nucleosides: plasma pharmacokinetics
[3] = test system: acutely HIV-1 infected human PBM cells; experiment: Median effect / combination index study with Racivir; assay type: cell-based; settings: Human immunodeficiency virus 1, PBMC, 120 h, Day 5, assays (1), (2), (3)
[4] = human, in vivo
[5] = test system: AZT/3TC-resistant HIV-1 recombinant viruses; experiment: microbe, parasite or virus in culture; assay type: cell-based; settings: Human immunodeficiency virus 1, read-out: Average IC90 for AZT/3TC-R virus
Description: A panel of 22 viruses was constructed in the HXB2 background using the Protease and RT sequences from clinical isolates to determine Virco Profiling against recombinant clinical isolates (see FIGS. 7a and 7b). Viruses contained 2 to 17 mutations in RT frequently associated with nucleoside resistance, including: M184V, M41L, D67N, T215Y. IC50 values were determined using a high through-put reporter virus assay.

wild type HIV-RT = biological target: T1, wild type HIV-RT (Human immunodeficiency virus type 1 group M subtype B, UniProt P04585); experiment: Ki / Km for wild type HIV-RT; assay type: biochemical, HIV-1
T1 construct: The Ki value for β-D-D4FC-TP for wild type HIV-RT

With `O=c1[nH]cnc2c1ncn2[C@H]1CC[C@@H](CO)O1` [DDI, 2′,3′-dideoxyinosine] the Intracellular half life [1] was 25 to 40 h, the Cmax (clinical) was 4.2 µM and the half-life [2] was 1.5 h. For the same molecule, the EC50 ([3]; read-out: EC50) was 0.38 µM, the EC90 ([3]; read-out: EC90) was 2.2 µM and the “Intracellular [Nuc-PPP] in patients” value [4] was under 0.5 µM. For the same molecule, the IC90 [5] was 12.6 µM and the Ki (wild type HIV-RT) was 0.08 to 8 µM.
